According to publication PMC3395594, “Rational Engineering of Enzyme Allosteric Regulation through Sequence Evolution Analysis” (PLoS Computational Biology, 2012):
Where two headings read alike, the source gives them in different places.

Key:
Assay in all cases: malachite green phosphate release assay, fit to nonlinear noncompetitive inhibition
Assay type in all cases: biochemical
[1] = biological target: T1, E. coli FBPase (fructose-1,6-bisphosphatase) (Escherichia coli, UniProt P0A993, R132I)
T1 construct: gene fbp; full-length fbp in pET101/D-TOPO, reverse primer without stop (C-terminal vector tag with polyhistidine, no cleavage told), expressed in E. coli BL21 (DE3), Ni-NTA purified
T1 sequence (P0A993 whole entry R132I): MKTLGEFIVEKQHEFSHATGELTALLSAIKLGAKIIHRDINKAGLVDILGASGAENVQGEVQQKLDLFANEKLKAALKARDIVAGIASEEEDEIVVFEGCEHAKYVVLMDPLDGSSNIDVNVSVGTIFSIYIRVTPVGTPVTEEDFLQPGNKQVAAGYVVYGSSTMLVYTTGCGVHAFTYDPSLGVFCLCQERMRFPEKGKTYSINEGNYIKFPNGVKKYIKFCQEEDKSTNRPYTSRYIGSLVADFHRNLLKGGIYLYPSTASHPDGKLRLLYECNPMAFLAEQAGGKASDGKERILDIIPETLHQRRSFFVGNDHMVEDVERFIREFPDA

[2] = biological target: T2, E. coli FBPase (fructose-1,6-bisphosphatase) (Escherichia coli, UniProt P0A993, K104Q/R132I)
T2 construct: gene fbp; full-length fbp in pET101/D-TOPO, reverse primer without stop (C-terminal vector tag with polyhistidine, no cleavage told), expressed in E. coli BL21 (DE3), Ni-NTA purified
T2 sequence (P0A993 whole entry K104Q/R132I): as the sequence (P0A993 whole entry R132I) above, with K104Q counted along it

[3] = biological target: T3, E. coli FBPase (fructose-1,6-bisphosphatase) (Escherichia coli, UniProt P0A993, K104Q/K218Q/R132I/Y210F)
T3 construct: gene fbp; full-length fbp in pET101/D-TOPO, reverse primer without stop (C-terminal vector tag with polyhistidine, no cleavage told), expressed in E. coli BL21 (DE3), Ni-NTA purified
T3 sequence (P0A993 whole entry K104Q/R132I/Y210F/K218Q): as the sequence (P0A993 whole entry R132I) above, with K104Q, Y210F, K218Q counted along it

[4] = biological target: T4, E. coli FBPase (fructose-1,6-bisphosphatase) (Escherichia coli, UniProt P0A993, K104Q)
T4 construct: gene fbp; full-length fbp in pET101/D-TOPO, reverse primer without stop (C-terminal vector tag with polyhistidine, no cleavage told), expressed in E. coli BL21 (DE3), Ni-NTA purified
T4 sequence (P0A993 whole entry K104Q): as the sequence (P0A993 whole entry R132I) above, with K104Q, I132R counted along it

[5] = biological target: T5, E. coli FBPase (fructose-1,6-bisphosphatase) (Escherichia coli, UniProt P0A993)
T5 construct: gene fbp; full-length fbp in pET101/D-TOPO, reverse primer without stop (C-terminal vector tag with polyhistidine, no cleavage told), expressed in E. coli BL21 (DE3), Ni-NTA purified
T5 sequence (P0A993 1-332): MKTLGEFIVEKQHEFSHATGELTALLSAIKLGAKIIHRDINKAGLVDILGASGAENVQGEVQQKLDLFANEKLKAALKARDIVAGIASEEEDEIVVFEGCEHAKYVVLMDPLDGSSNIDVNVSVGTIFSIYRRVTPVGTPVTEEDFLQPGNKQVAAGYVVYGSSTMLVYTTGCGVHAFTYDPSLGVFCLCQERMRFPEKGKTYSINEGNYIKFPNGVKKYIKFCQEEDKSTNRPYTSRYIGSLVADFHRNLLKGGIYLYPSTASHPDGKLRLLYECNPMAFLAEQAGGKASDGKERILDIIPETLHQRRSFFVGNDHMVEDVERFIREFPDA
From the text: malachite green phosphate release assay, fit to nonlinear noncompetitive inhibition on E. coli FBPase (fructose-1,6-bisphosphatase) | Comparison of inhibition constants of wild-type and mutant FBPase by the allosteric inhibitor, AMP. | Comparison of inhibition constant of wild-type and mutant FBPase by the allosteric inhibitor, Glc-6-P.

[6] = biological target: T6, E. coli FBPase (fructose-1,6-bisphosphatase) (Escherichia coli, UniProt P0A993, K218Q); details: allosteric Glc-6-P site, with respect to FBP, Mg2+, pH 7.5, 25 C
T6 construct: gene fbp; full-length fbp in pET101/D-TOPO, reverse primer without stop (C-terminal vector tag with polyhistidine, no cleavage told), expressed in E. coli BL21 (DE3), Ni-NTA purified
T6 sequence (P0A993 whole entry K218Q): as the sequence (P0A993 whole entry R132I) above, with I132R, K218Q counted along it

[7] = biological target: T7, E. coli FBPase (fructose-1,6-bisphosphatase) (Escherichia coli, UniProt P0A993, K104Q/R132I/Y210F/K218Q); details: allosteric Glc-6-P site; with respect to FBP; noncompetitive; Mg2+; pH 7.5, 25 C
T7 construct: gene fbp; full-length fbp in pET101/D-TOPO, reverse primer without stop (C-terminal vector tag with polyhistidine, no cleavage told), expressed in E. coli BL21 (DE3), Ni-NTA purified
T7 sequence (P0A993 whole entry K104Q/R132I/Y210F/K218Q): as the sequence (P0A993 whole entry R132I) above, with K104Q, Y210F, K218Q counted along it

[8] = biological target: T8, E. coli FBPase (fructose-1,6-bisphosphatase) (Escherichia coli, UniProt P0A993, Y210F); details: allosteric Glc-6-P site, with respect to FBP, Mg2+, pH 7.5, 25 C
T8 construct: gene fbp; full-length fbp in pET101/D-TOPO, reverse primer without stop (C-terminal vector tag with polyhistidine, no cleavage told), expressed in E. coli BL21 (DE3), Ni-NTA purified
T8 sequence (P0A993 whole entry Y210F): as the sequence (P0A993 whole entry R132I) above, with I132R, Y210F counted along it

[9] = biological target: T9, E. coli FBPase (fructose-1,6-bisphosphatase) (Escherichia coli, UniProt P0A993, Y210F/K218Q); details: allosteric Glc-6-P site, with respect to FBP, Mg2+, pH 7.5, 25 C
T9 construct: gene fbp; full-length fbp in pET101/D-TOPO, reverse primer without stop (C-terminal vector tag with polyhistidine, no cleavage told), expressed in E. coli BL21 (DE3), Ni-NTA purified
T9 sequence (P0A993 whole entry Y210F/K218Q): as the sequence (P0A993 whole entry R132I) above, with I132R, Y210F, K218Q counted along it

SMILES	Ki [1]	Ki [2]	Ki [3]	Ki [4]	Ki [5]	Ki [6]	Ki [7]	Ki [8]	Ki [9]	Ki ([5]; allosteric Glc-6-P site, with respect to FBP, noncompetitive, Mg2+, pH 7.5, 25 C)
Nc1ncnc2c1ncn2[C@@H]1O[C@H](COP(=O)(O)O)[C@@H](O)[C@H]1O [AMP]	151 ± 12.9 µM	1460 ± 215 µM	1680 ± 299 µM	419 ± 54.1 µM	10.1 ± 0.8 µM	–	–	–	–	–
O=P(O)(O)OC[C@H]1OC(O)[C@H](O)[C@@H](O)[C@@H]1O (stereo partly shown) [Glc-6-P]	–	–	–	–	–	14100 ± 3900 µM	21100 ± 2900 µM	13100 ± 2900 µM	20400 ± 7300 µM	800 ± 200 µM
